System: NOMO1
Experiment: cell viability relative to DMSO control; higher = less cytotoxic
Settings: 48 h
Method in brief: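 Library compounds in DMSO were pin-dosed in an 11-point threefold series (47 μM to 0.79 nM) onto leukemia cells in 1536-well plates (5 μl). Plates held 500 cells/well of NOMO1 or SEM or 1000 cells/well of P12-Ichikawa, each adapted for at least four passages in each medium. Luminescence was read with CellTiter-Glo One after 48 h at 37°C. Viability means the per-plate percentage relative to DMSO wells, using cell-free wells as background.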

[1] = RPMI 5 mM glucose + 10% FBS, 0.000781 µM
[2] = RPMI 5 mM glucose + 10% FBS, 0.00234 µM
[3] = RPMI 5 mM glucose + 10% FBS, 0.00702 µM
[4] = RPMI 5 mM glucose + 10% FBS, 0.0211 µM
[5] = RPMI 5 mM glucose + 10% FBS, 0.0632 µM
[6] = RPMI 5 mM glucose + 10% FBS, 0.19 µM
[7] = RPMI 5 mM glucose + 10% FBS, 0.569 µM
[8] = RPMI 5 mM glucose + 10% FBS, 1.71 µM
[9] = RPMI 5 mM glucose + 10% FBS, 5.12 µM
[10] = RPMI 5 mM glucose + 10% FBS, 15.4 µM
[11] = RPMI 5 mM glucose + 10% FBS, 46.1 µM
[12] = RPMI 5 mM glucose + 10% dialyzed FBS, 0.000781 µM
[13] = RPMI 5 mM glucose + 10% dialyzed FBS, 0.00234 µM
[14] = RPMI 5 mM glucose + 10% dialyzed FBS, 0.00702 µM
[15] = RPMI 5 mM glucose + 10% dialyzed FBS, 0.0211 µM
[16] = RPMI 5 mM glucose + 10% dialyzed FBS, 0.0632 µM
[17] = RPMI 5 mM glucose + 10% dialyzed FBS, 0.19 µM
[18] = RPMI 5 mM glucose + 10% dialyzed FBS, 0.569 µM
[19] = RPMI 5 mM glucose + 10% dialyzed FBS, 1.71 µM
[20] = RPMI 5 mM glucose + 10% dialyzed FBS, 5.12 µM
[21] = RPMI 5 mM glucose + 10% dialyzed FBS, 15.4 µM
[22] = RPMI 5 mM glucose + 10% dialyzed FBS, 46.1 µM
[23] = HPLM + 10% dialyzed FBS, 0.000781 µM
[24] = HPLM + 10% dialyzed FBS, 0.00234 µM
[25] = HPLM + 10% dialyzed FBS, 0.00702 µM
[26] = HPLM + 10% dialyzed FBS, 0.0211 µM
[27] = HPLM + 10% dialyzed FBS, 0.0632 µM
[28] = HPLM + 10% dialyzed FBS, 0.19 µM
[29] = HPLM + 10% dialyzed FBS, 0.569 µM
[30] = HPLM + 10% dialyzed FBS, 1.71 µM
[31] = HPLM + 10% dialyzed FBS, 5.12 µM
[32] = HPLM + 10% dialyzed FBS, 15.4 µM
[33] = HPLM + 10% dialyzed FBS, 46.1 µM

| Compound | cell viability [1] [%] | cell viability [2] [%] | cell viability [3] [%] | cell viability [4] [%] | cell viability [5] [%] | cell viability [6] [%] | cell viability [7] [%] | cell viability [8] [%] | cell viability [9] [%] | cell viability [10] [%] | cell viability [11] [%] | cell viability [12] [%] | cell viability [13] [%] | cell viability [14] [%] | cell viability [15] [%] | cell viability [16] [%] | cell viability [17] [%] | cell viability [18] [%] | cell viability [19] [%] | cell viability [20] [%] | cell viability [21] [%] | cell viability [22] [%] | cell viability [23] [%] | cell viability [24] [%] | cell viability [25] [%] | cell viability [26] [%] | cell viability [27] [%] | cell viability [28] [%] | cell viability [29] [%] | cell viability [30] [%] | cell viability [31] [%] | cell viability [32] [%] | cell viability [33] [%] |
| --- | --- | --- | --- | --- | --- | --- | --- | --- | --- | --- | --- | --- | --- | --- | --- | --- | --- | --- | --- | --- | --- | --- | --- | --- | --- | --- | --- | --- | --- | --- | --- | --- | --- |
| C/C1=C/C(=C(/CNC(=O)C2=CC(=CC3=C2C=N[N]3C4CCCC4)C5=CC=C(CN6CCOCC6)C=C5)C(=O)N1)C | 110 | 125 | 118 | 120 | 132 | 127 | 127 | 124 | 104 | 117 | 22 | 124 | 118 | 128 | 123 | 125 | 111 | 131 | 125 | 125 | 112 | 13.5 | – | – | – | – | – | – | – | – | – | – | – |
| CCC[C@H](Nc1nc(-c2ccc(NC(=O)NCC)c(OC)c2)ncc1C)c1cccnc1 | 114 | 112 | 129 | 115 | 50 | 31.5 | 33.8 | 26.4 | 27.8 | 30.9 | 25.7 | 105 | 120 | 122 | 125 | 34.6 | 35.3 | 39.2 | 31.2 | 23.9 | 31.1 | 28.7 | 119 | 109 | 115 | 126 | 47.8 | 41.7 | 44.2 | 48.7 | 45.8 | 48.4 | 39.7 |
| Cc1nc(-c2ccc(-c3ccc(C(=O)N4CCc5cc6c(cc54)C4(CCN(C)CC4)CO6)cc3)c(C)c2)no1 | 107 | 120 | 111 | 104 | 116 | 115 | 128 | 104 | 110 | 111 | 112 | 104 | 111 | 116 | 104 | 101 | 131 | 135 | 118 | 122 | 117 | 118 | 92.2 | 119 | 105 | 124 | 136 | 131 | 128 | 129 | 127 | 127 | 135 |
| CN(C)C(=O)[C@H](O)[C@H](Cc1ccccc1)NC(=O)c1cc2cc(Cl)ccc2[nH]1 | 111 | 105 | 103 | 103 | 124 | 126 | 127 | 109 | 123 | 121 | 112 | 83.9 | 109 | 109 | 109 | 113 | 115 | 132 | 133 | 118 | 136 | 126 | 107 | 107 | 115 | 122 | 122 | 132 | 144 | 145 | 171 | 145 | 138 |
